# In patent US9067894B1, “Compound, composition, and method of activating GIRK potassium channel and use of same for treating conditions of interest” (Vanderbilt University, priority 2013, dated 2015):
# Molecular target: T1, GIRK1/2 (Homo sapiens, UniProt P48051+P48549)
# T1 sequence (P48549 1-501): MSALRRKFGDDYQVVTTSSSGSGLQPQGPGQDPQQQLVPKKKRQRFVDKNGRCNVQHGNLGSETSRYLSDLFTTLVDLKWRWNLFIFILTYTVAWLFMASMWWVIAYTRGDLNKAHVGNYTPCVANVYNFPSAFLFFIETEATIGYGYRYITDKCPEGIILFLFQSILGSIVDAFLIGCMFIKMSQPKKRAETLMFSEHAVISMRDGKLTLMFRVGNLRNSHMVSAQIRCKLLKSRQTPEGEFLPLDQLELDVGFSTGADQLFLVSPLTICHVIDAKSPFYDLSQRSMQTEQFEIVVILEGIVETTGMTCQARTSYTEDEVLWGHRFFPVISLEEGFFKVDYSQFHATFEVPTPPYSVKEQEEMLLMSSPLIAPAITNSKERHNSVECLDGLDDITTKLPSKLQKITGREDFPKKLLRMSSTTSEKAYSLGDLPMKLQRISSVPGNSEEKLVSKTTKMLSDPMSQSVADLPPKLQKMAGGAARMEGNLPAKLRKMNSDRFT
# T1 sequence (P48051 1-423): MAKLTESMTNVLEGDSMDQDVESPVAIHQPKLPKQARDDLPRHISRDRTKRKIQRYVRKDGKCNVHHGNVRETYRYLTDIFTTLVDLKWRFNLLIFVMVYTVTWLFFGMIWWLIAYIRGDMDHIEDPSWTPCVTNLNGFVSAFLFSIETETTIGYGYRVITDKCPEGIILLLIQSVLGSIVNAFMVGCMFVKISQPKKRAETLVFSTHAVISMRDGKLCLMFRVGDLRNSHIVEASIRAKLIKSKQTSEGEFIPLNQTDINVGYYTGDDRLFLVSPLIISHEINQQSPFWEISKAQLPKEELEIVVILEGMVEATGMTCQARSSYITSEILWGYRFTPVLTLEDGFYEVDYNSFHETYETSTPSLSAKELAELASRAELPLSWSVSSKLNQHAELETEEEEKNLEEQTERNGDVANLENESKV
# Test: Whole-cell voltage-clamp, GIRK1/2-expressing HEK-293 cells
# Assay type: cell-based
# Design: host or cells: HEK-293
# Description: Cell Line Construction and Cell Culture. HEK-293 cells co-expressing human GIRK1/2 and rat mGlu8 were generated as previously described (Niswender et al., 2008). A HEK-293 cell line (ATCC, Manassas, Va.) expressing human GIRK1 and human GIRK2 was constructed by transfecting HEK-293 cells with GIRK1 and GIRK2 (Origene, Rockville, Md.) cloned into the pBudCE4.1 vector (Life Technologies, Carlsbad, Calif.) using FuGene 6 (Promega, Madison, Wis.) transfection reagent. Unless otherwise noted, other ion channel-expressing cells were prepared by transfecting HEK-293 cells with individual or combinations of subunits: GIRK1, pCMV6-A-BSD; GIRK2, pCMV6-A-puro; GIRK3, pCMV6-A-hygro; GIRK4, pCMV6-A-AC; Kv7.4, pIRESneo3. The Kir2.1 and hERG-expressing cell lines were made by transfecting T-REx-293 cells (Life Technologies, Carlsbad, Calif.) with Kir2.1 and Kv11.1, respectively, cloned into pcDNA5TO. Monoclonal cell lines were produced by limiting-dilution cloning of antibiotic-resistant cells and functional selection using the thallium flux assay described below. Unless otherwise noted, cells were maintained in Minimal Essential Medium, Alpha Medium (Mediatech, Manassas, Va.) supplemented with 10% fetal bovine serum (Sigma-Aldrich, Saint Louis, Mo.) and GlutaGro (Mediatech, Manassas, Va.), referred to henceforth as cell culture medium. […]
# A single-cell suspension of HEK-293 cells stably transfected with the appropriate ion channels were plated into TC-treated 35 mm polystyrene dishes at ˜15% confluence and incubated overnight in a 5% CO2 cell culture incubator at 37° C. […] Whole cell currents were recorded in 20K extracellular solution at −70 mV using a Pico 1 amplifier (Tecella, Foothill Ranch, Calif.) controlled by WINWCP 4.X (University of Strathclyde, Glasgow, Scotland, UK). […] One day after transfection, cells were plate into 35 mm polystyrene dishes, incubated and recorded as described above. […]
# Voltage-clamp data were analyzed by converting current amplitudes to current density by dividing by each cell's membrane capacitance estimated from capacitance compensation. […]
compound,measurement,setting,value
"Cc1cc(NC(=O)Nc2ccc(F)c(F)c2)n(-c2ccccc2)n1 [VU0456810, 1-(3,4-difluorophenyl)-3-(3-methyl-1-phenyl-1H-pyrazol-5-yl)urea]",time to 90% of maximal current amplitude after application,"10 μM, local superfusion",approximately 2 seconds
same,washout time,after application was terminated,nearly a minute
same,EC50,"cell line GIRK1-2, average ± SEM",0.584 ± 0.175 µM
